# Reference: patent publication US8309144B2, “Use of a cruciferous protein hydrolysate as a depigmentation agent or for a cosmetic and/or pharmaceutical composition” (ISP Investments Inc., priority 2004, dated 2012)
# Test system: melanin in the epidermis of ex vivo skin
# Assay: Whitening effect on ex vivo skin, Fontana-Masson staining with image analysis of luminosity histograms (Example 5)
# Type: cell-based, human
# Description: Comparative studies were conducted using 1% of a non fermented rapeseed peptide hydrolysate for 72 hours, or 1% arbutin, known for its whitening effect, or a combination of both on ex vivo skin.
# Skin biopsies are prepared as described in example 2. Four different conditions are tested: • Condition 1: control, no active ingredient is applied • Condition 2: Arbutin 1% is applied twice a day over a period of 72 hours • Condition 3: non fermented rapeseed extract is applied twice a day over a period of 72 hours • Condition 4: a combination of 1% of a non fermented rapeseed extract and 0.5% arbutin is applied twice a day over a period of 72 hours
# A quantitative evaluation of the presence of melanin in the epidermis of the skin samples is carried out histologically, under an optical microscope, using the Fontana-Masson staining method as described in example 2.
# To confirm visual observations and quantify the results, image analysis was performed using several image processing steps and analysis of luminosity histograms.
# All date were normalized to the length of the basal layer within a given histological section.
smiles,measurement,setting,value
OC[C@H]1O[C@@H](Oc2ccc(O)cc2)[C@H](O)[C@@H](O)[C@@H]1O [arbutin],decrease in melanin content (normalized integrated values of histograms),"ex vivo skin, 1%, 72 hours",32%
same,"melanin content, visual observation (in words)","ex vivo skin, 1%, 72 hours",significant decrease in melanin content
same,% of decrease (melanin content vs control),"ex vivo skin, applied twice a day over 72 hours, 1% (combination 1%/0.5%)",−31.8%
same,Area under curve (luminosity histogram),"ex vivo skin, applied twice a day over 72 hours, 1% (combination 1%/0.5%), control 54517",46247
same,Area/length,"normalized to length of basal layer, applied twice a day over 72 hours, control 66.78",45.53 l/micron
